Test results as given in ChEMBL document CHEMBL1133448, “Computational studies on HIV-1 protease inhibitors: influence of calculated inhibitor-enzyme binding affinities on the statistical quality of 3D-QSAR CoMFA models” (J Med Chem, 2000).

Target: Human immunodeficiency virus type 1 protease (Human immunodeficiency virus 1, UniProt Q72874)
Experiment: Inhibition of human immunodeficiency virus type 1 (HIV-1) protease enzyme.

SMILES | IC50 [nM]
O=C(N[C@@H](Cc1ccccc1)[C@@H](O)C[C@@H](Cc1ccccc1)C(=O)NC1c2ccccc2C[C@@H]1O)OC1CCOC1 (stereo partly specified) | 0.0603
CC(C)(C)OC(=O)N[C@@H](Cc1ccccc1)[C@@H](O)C[C@@H](Cc1ccccc1)C(=O)NC1c2ccccc2C(O)[C@@H]1O (stereo partly specified) | 0.1
CC(C)(C)OC(=O)N[C@@H](Cc1ccccc1)[C@@H](O)C[C@@H](Cc1ccccc1)C(=O)NC1c2ccccc2OC[C@@H]1O (stereo in doubt; 27) | 40.7
CC(C)(C)OC(=O)N[C@@H](Cc1ccc(O)cc1)[C@@H](O)C1CCCC1C(=O)NCc1ccccc1 (stereo partly specified) | 589
Cc1ccc(C[C@H](C[C@H](O)[C@H](Cc2ccccc2)NC(=O)OC(C)(C)C)C(=O)NC2c3ccccc3C[C@@H]2O)cc1 (stereo partly specified) | 0.288
CC(C)(C)OC(=O)N[C@@H](Cc1ccccc1)[C@@H](O)CCC(=O)NC1c2ccccc2C[C@@H]1O (stereo partly specified) | 2950
C=CC[C@H](C[C@H](O)[C@H](Cc1ccccc1)NC(=O)OC(C)(C)C)C(=O)NC1c2ccccc2C[C@@H]1O (stereo partly specified) | 27.5
COC(=O)C1Cc2ccccc2C1NC(=O)[C@H](Cc1ccccc1)C[C@H](O)[C@H](Cc1ccccc1)NC(=O)OC(C)(C)C (stereo partly specified) | 66.1
CC(C)(C)OC(=O)N[C@@H](Cc1ccccc1)[C@@H](O)C[C@@H](Cc1c(F)c(F)c(F)c(F)c1F)C(=O)NC1c2ccccc2C[C@@H]1O (stereo partly specified) | 0.603
CC(C)(C)OC(=O)N[C@@H](Cc1ccccc1)[C@@H](O)C[C@@H](Cc1ccccc1)C(=O)NC1c2ccccc2C[C@@H]1O (stereo partly specified) | 0.251
CC(C)(C)OC(=O)N[C@@H](Cc1ccccc1)[C@@H](O)C[C@@H](Cc1ccncc1)C(=O)NC1c2ccccc2C[C@@H]1O (stereo partly specified) | 0.525
CC(C)(C)OC(=O)N[C@@H](Cc1ccccc1)[C@@H](O)C[C@@H](Cc1ccccc1)C(=O)NC1c2ccccc2OC[C@@H]1O (stereo in doubt; 26) | 0.178
CC(C)(C)OC(=O)N[C@@H](Cc1ccccc1)[C@@H](O)C[C@@H](C/C=C/c1ccccc1)C(=O)NC1c2ccccc2C[C@@H]1O (stereo partly specified) | 0.229
CC(C)(C)OC(=O)N[C@@H](Cc1ccccc1)[C@@H](O)C[C@@H](CCCc1ccccc1)C(=O)NC1c2ccccc2C(O)[C@@H]1O (stereo partly specified) | 0.191
CC(C)(C)OC(=O)N[C@@H](Cc1ccccc1)[C@@H](O)C[C@@H](Cc1ccc(O)cc1)C(=O)NC1c2ccccc2C[C@@H]1O (stereo partly specified) | 0.158
CC(C)(C)OC(=O)NC(Cc1ccccc1)[C@@H](O)CC(Cc1ccc([N+](=O)[O-])cc1)C(=O)NC1c2ccccc2C[C@@H]1O (stereo partly specified) | 0.269
CC(C)(C)OC(=O)N[C@@H](Cc1ccccc1)[C@@H](O)C[C@@H](Cc1ccc(C(F)(F)F)cc1)C(=O)NC1c2ccccc2C[C@@H]1O (stereo partly specified) | 0.257
CC(C)(C)OC(=O)N[C@@H](Cc1ccccc1)[C@@H](O)C[C@H](C(=O)NC1c2ccccc2C[C@@H]1O)C(=O)c1ccccc1 (stereo partly specified) | 5.37
CC(C)(C)OC(=O)N[C@@H](Cc1ccccc1)[C@@H](O)CC1(Cc2ccccc2)CCCN(C2c3ccccc3C[C@@H]2O)C1=O (stereo partly specified) | 1260
CC(C)(C)OC(=O)N[C@@H](Cc1ccccc1)[C@@H](O)C[C@@H](Cc1ccccc1)C(=O)NC1C=CC[C@@H]1O (stereo partly specified) | 9.55
CC(C)(C)OC(=O)N[C@@H](Cc1ccccc1)[C@@H](O)C[C@@H](Cc1ccccc1)C(=O)NC1CCc2ccccc21 (stereo partly specified) | 33.9
CC(C)(C)OC(=O)NC(Cc1ccccc1)[C@@H](O)CC(Cc1ccc(N)cc1)C(=O)NC1c2ccccc2C[C@@H]1O (stereo partly specified) | 0.309
O=C(NC1c2ccccc2C[C@@H]1O)[C@H](Cc1ccccc1)CC(O)C[C@@H](Cc1ccccc1)C(=O)NC1c2ccccc2C[C@@H]1O (stereo partly specified) | 0.692
CC(C)(C)OC(=O)NC(Cc1ccccc1)[C@@H](O)CC(CSc1ccccc1)C(=O)NC1c2ccccc2C[C@@H]1O (stereo partly specified) | 0.251
CC(C)(C)OC(=O)N[C@@H](Cc1ccccc1)[C@@H](O)CC(=O)NC1c2ccccc2C[C@@H]1O (stereo partly specified) | 562
CC(C)(C)OC(=O)N[C@@H](Cc1ccccc1)[C@@H](O)/C=C(/Cc1ccccc1)C(=O)NC1c2ccccc2C[C@@H]1O (stereo partly specified) | 1.29
